Experimental data reported in US20250170090A1, “METHOD FOR PREVENTING OR TREATING DISEASE OR DISORDER ASSOCIATED WITH ANTINEOPLASTIC AGENT” (ONQUALITY PHARMACEUTICALS CHINA LTD., priority 2022, published 2025).

Columns and labels:
[1] = test system: hand-foot syndrome caused by anti-tumor agents; assay: Treatment of established hand-foot syndrome caused by anti-tumor agents in rats (Table 4); format: in vivo
Method: After the rats (about 200 g) were fed and adapted for one week, the rats were divided into groups of 10 rats for gavage administration experiment. The anti-tumor agent was dissolved in a mixed solution of Cremophor EL:ethanol=1:1, and diluted with PBS to the required concentration (diluted about 3 times with PBS solution) before gavage. […] Specific experimental procedures followed those outlined in the prevention experiment. […] Table 4 lists the animal experiments using various anti-tumor agents and NO-NSAID ointment, as well as the corresponding experimental results (where the value in the control rate column=the incidence rate of hand-foot syndrome in the blank group−the incidence rate of hand-foot syndrome in the treatment group).

[2] = test system: human immortalized keratinocytes (HaCaT); assay: CCK-8 cell viability: alleviation of proliferative toxicity of anti-tumor agents on HaCaT (Table 8-1); format: cell-based; conditions: NO-NSAID 100 μM, percentage increase in viable cells vs anti-tumor agent alone
Method: (§1) Experiments were conducted using various epithelial cells: Examples 47-51 used human immortalized keratinocytes (HaCaT) with corresponding results in Table 8-1; Examples 52-56 used human oral keratinocytes (HOK) with results in Table 8-2; Examples 57-61 used gastric epithelial cells (GES-1) with results in Table 8-3; Examples 62-66 used human intestinal epithelial cells (FHs 74 Int) with results in Table 8-4.
(§2) The cultured cells were digested the suspended, counted, and seed into a 96-well plate with 5,000-10,000 cells per well. The wells are divided into the following groups: blank control group, anti-tumor agent group, anti-tumor agent+NO-NSAID group, anti-tumor agent solvent group, NO-NSAID solvent control group. Wherein each well of each group contained a basic medium, and the final liquid volume contained in each well was about 100 μL. The grouping situation was as follows: • 1) Blank control group: no solution was added except normally replacing the medium; • 2) Anti-tumor agent group: added the anti-tumor agent solution (the final concentration was shown in Table 8-1 to Table 8-4, the solvent of the anti-tumor agent solution was DMSO); • 3) Anti-tumor agent+NO-NSAID group: added the anti-tumor agent solution and the NO-NSAID solution (the final concentrations of anti-tumor agent and NO-NSAID were shown in Table 8-1 to Table 8-4, and according to the solubility of NO-NSAID, the solvent of NO-NSAID solution was selected as ethanol or sterile water, and minor volume differences in each group were adjusted by added the corresponding solvent); • 4) Anti-tumor agent solvent group: an equal volume of DMSO as contained in the corresponding anti-tumor agent solution in Group 2) was added; • 5) NO-NSAID control group: the same volume and type of solvent (for example, ethanol or sterile water) corresponding to the NO-NSAID contained in group 3) was added.
(§3) The anti-tumor agent solvent group was not involved in data processing and was only used as a reference for evaluating experimental system error. The NO-NSAID solvent control group was used for data correction to eliminate the influence of the solvent on the results.
(§4) After culturing for 24-48 hours, the Cell Counting Kit-8 (CCK-8) detection kit (C0037, Shanghai Beyotime Biotechnology Co., Ltd., Beyotime Biotechnology) was used to determine the cell viability. This allows for the calculation of the proliferative toxicity of anti-tumor agent on cell and the mitigating effect of NO-NSAID on proliferative toxicity. The results were statistically analyzed and plotted using GraphPad Prism 6.0 software and t test.

[3] = test system: human intestinal epithelial cells (FHs 74 Int); assay: CCK-8 cell viability: alleviation of proliferative toxicity of anti-tumor agents on FHs 74 Int (Table 8-4); format: cell-based; conditions: NO-NSAID 100 μM
Method: as §1, §2, §3, §4

[4] = test system: hand-foot syndrome caused by macromolecular anti-tumor agents; assay: Prevention of hand-foot syndrome caused by macromolecular protein inhibitors in rats (Table 3); format: in vivo
[5] = Regorafenib 90 mg/kg once every two days, ointment 1% wt, Days 7

SMILES	Response rate % (average) ([2]; Afatinib (10 μM)) [%]	Response rate % (average) ([2]; Cabozantinib (5 μM)) [%]	Response rate % (average) ([2]; Dabrafenib (10 μM)) [%]	Response rate % (average) ([2]; Everolimus (5 μM)) [%]	Response rate % (average) ([2]; Infigratinib (15 μM)) [%]	Response rate % (average) ([2]; Lapatinib (5 μM)) [%]	Response rate % (average) ([2]; Lenvatinib (10 μM)) [%]	Response rate % (average) ([2]; Olmutinib (10 μM)) [%]	Response rate % (average) ([2]; Regorafenib (5 μM)) [%]	Response rate % (average) ([2]; Selumetinib (5 μM)) [%]	Response rate % (average) ([2]; Sorafenib (5 μM)) [%]	Response rate % (average) ([2]; Sunitinib (5 μM)) [%]	Response rate % (average) ([3]; Afatinib (10 μM)) [%]	Response rate % (average) ([3]; Cabozantinib (5 μM)) [%]	Response rate % (average) ([3]; Dabrafenib (10 μM)) [%]	Response rate % (average) ([3]; Everolimus (5 μM)) [%]	Response rate % (average) ([3]; Infigratinib (15 μM)) [%]	Response rate % (average) ([3]; Lapatinib (5 μM)) [%]	Response rate % (average) ([3]; Lenvatinib (10 μM)) [%]	Response rate % (average) ([3]; Olmutinib (10 μM)) [%]	further results
CC(C(=O)OCCCO[N+](=O)[O-])c1ccc(-c2ccccc2)c(F)c1 (stereo not drawn) [Compound A1]	38	36	2	−3	−6	33	24	42	41	19	25	15	39	27	−9	19	0	35	43	34	Response rate ([1]; Apatinib 105 mg/kg once every two days, ointment 2.50% wt, Days 7): 28.57%; Response rate ([1]; Cabozantinib 50 mg/kg once every two days, ointment 1% wt, Days 11): 28.57%; Response rate ([1]; Encorafenib 80 mg/kg once every two days, ointment 2.50% wt, Days 9): 14.29%; Response rate ([1]; Fruquintinib 40 mg/kg once every two days, ointment 2.50% wt, Days 8): 42.86%; Response rate ([1]; Lenvatinib 65 mg/kg once a day, ointment 2.50% wt, Days 9): 40.00%; Response rate ([1]; Olmutinib 100 mg/kg once every two days, ointment 2.50% wt, Days 12): 42.86%; Response rate ([1]; Regorafenib 90 mg/kg once every two days, ointment 0.50% wt, Days 8): 14.29%; Response rate ([1]; Sorafenib 80 mg/kg once every two days, ointment 2.50% wt, Days 5): 28.57%; Response rate ([1]; Sunitinib 120 mg/kg once every two days, ointment 2.50% wt, Days 9): 28.57%; Response rate % (average) ([3]; Regorafenib (5 μM)): 37%; Response rate % (average) ([3]; Selumetinib (5 μM)): 29%; Response rate % (average) ([3]; Sorafenib (5 μM)): 17%; Response rate % (average) ([3]; Sunitinib (5 μM)): 21%
CC(=O)Oc1ccccc1C(=O)Oc1cccc(CO[N+](=O)[O-])c1 [Compound A2]	20	36	21	7	16	18	1	34	26	18	33	31	22	26	13	27	20	20	26	25	Control rate ([4]; Bevacizumab, 5-FU combination, tail vein injection once a week, ointment 1% wt, Days 18): 33.33%; Control rate ([4]; Bevacizumab, 5-FU combination, tail vein injection once a week, ointment 5% wt, Days 18): 50.00%; Control rate ([4]; Ramucirumab combined with paclitaxel, intraperitoneal injection once a week, ointment 1% wt, Days 23): 33.33%; Control rate ([4]; Ramucirumab combined with paclitaxel, intraperitoneal injection once a week, ointment 5% wt, Days 23): 66.67%; Response rate ([1]; Apatinib 105 mg/kg once every two days, ointment 3% wt, Days 7): 33.33%; Response rate ([1]; Cabozantinib 50 mg/kg once every two days, ointment 1% wt, Days 13): 14.29%; Response rate ([1]; Erdafitinib 45 mg/kg once every two days, ointment 3% wt, Days 13): 28.57%; Response rate ([1]; Fruquintinib 40 mg/kg once every two days, ointment 3% wt, Days 8): 50.00%; Response rate ([1]; Lenvatinib 65 mg/kg once a day, ointment 3% wt, Days 9): 33.33%; Response rate [1, 5]: 33.33%; Response rate ([1]; Sorafenib 80 mg/kg once every two days, ointment 2.00% wt, Days 5): 20.00%; Response rate ([1]; Sunitinib 120 mg/kg once every two days, ointment 3% wt, Days 7): 33.33%; Response rate % (average) ([3]; Regorafenib (5 μM)): 21%; Response rate % (average) ([3]; Selumetinib (5 μM)): 27%; Response rate % (average) ([3]; Sorafenib (5 μM)): 26%; Response rate % (average) ([3]; Sunitinib (5 μM)): 36%
CC(=O)Oc1ccccc1C(=O)OCOC(=O)CCCCCO[N+](=O)[O-] [Compound A3]	24	24	3	−10	1	22	0	37	33	20	33	19	26	13	−8	14	6	23	25	29	Response rate [1, 5]: 33.33%; Response rate ([1]; Sorafenib 80 mg/kg once every two days, ointment 3% wt, Days 7): 42.86%; Response rate % (average) ([3]; Regorafenib (5 μM)): 29%; Response rate % (average) ([3]; Selumetinib (5 μM)): 29%; Response rate % (average) ([3]; Sorafenib (5 μM)): 26%; Response rate % (average) ([3]; Sunitinib (5 μM)): 25%
CC(C)Cc1ccc(C(C)C(=O)OCO/N=[N+](\[O-])N(C)C)cc1 (stereo not drawn) [Compound A4]	31	37	1	−4	12	25	17	26	36	3	32	16	33	28	−9	18	17	26	38	16	Response rate % (average) ([3]; Regorafenib (5 μM)): 31%; Response rate % (average) ([3]; Selumetinib (5 μM)): 14%; Response rate % (average) ([3]; Sorafenib (5 μM)): 24%; Response rate % (average) ([3]; Sunitinib (5 μM)): 23%
CC(=O)Oc1ccccc1C(=O)OCc1no[n+]([O-])c1C(N)=O [Compound A6]																					Response rate ([1]; Encorafenib 80 mg/kg once every two days, ointment 1% wt, Days 7): 16.67%
